“And” between values parts separate entries of the source, which are not always exact repeats. Equal values may be shown once. Inconclusive results and toxic doses are left out. How the source made its calls: active means survival T/C of 150% or more; inactive means T/C below 125% in these data.
Test system: P388 leukemia ip, CD2F1 mice, survival T/C
Experiment: NCI In Vivo Anticancer Drug Screen. Data for tumor model P388 Leukemia (intraperitoneal) in CD2F1 (CDF1) mice
Conditions: endpoint: median survival time, higher = longer survival
How it was run: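 Mice carrying the transplanted tumor received test compound or vehicle. Survival was recorded in each group, and the value is the treated-group measurement divided by that of the vehicle-treated control group.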

[1] = dose: 50.0 mg/kg/injection, schedule: Q01DX009 (ip), vehicle: saline with Tween-80
[2] = dose: 100.0 mg/kg/injection, schedule: Q01DX009 (ip), vehicle: saline with Tween-80
[3] = dose: 12.5 mg/kg/injection, schedule: Q01DX005 (ip), vehicle: Klucel (hydroxypropylcellulose) (HPC)
[4] = dose: 25.0 mg/kg/injection, schedule: Q01DX005 (ip), vehicle: Klucel (hydroxypropylcellulose) (HPC)
[5] = dose: 50.0 mg/kg/injection, schedule: Q01DX005 (ip), vehicle: Klucel (hydroxypropylcellulose) (HPC)
[6] = dose: 60.0 mg/kg/injection, schedule: Q01DX005 (ip), vehicle: saline with Tween-80
[7] = dose: 120.0 mg/kg/injection, schedule: Q01DX005 (ip), vehicle: saline with Tween-80
[8] = dose: 240.0 mg/kg/injection, schedule: Q01DX005 (ip), vehicle: saline with Tween-80
[9] = dose: 50.0 mg/kg/injection, schedule: Q01DX009 (ip), vehicle: Klucel (hydroxypropylcellulose) (HPC)
[10] = dose: 100.0 mg/kg/injection, schedule: Q01DX009 (ip), vehicle: Klucel (hydroxypropylcellulose) (HPC)
[11] = dose: 200.0 mg/kg/injection, schedule: Q01DX009 (ip), vehicle: Klucel (hydroxypropylcellulose) (HPC)
[12] = dose: 100.0 mg/kg/injection, schedule: Q04DX002 (ip), vehicle: saline with Tween-80
[13] = dose: 50.0 mg/kg/injection, schedule: Q01DX005 (ip), vehicle: saline with Tween-80
[14] = dose: 100.0 mg/kg/injection, schedule: Q01DX005 (ip), vehicle: saline with Tween-80
[15] = dose: 200.0 mg/kg/injection, schedule: Q01DX005 (ip), vehicle: saline with Tween-80
[16] = dose: 100.0 mg/kg/injection, schedule: Q04DX002 (ip), vehicle: saline
[17] = dose: 200.0 mg/kg/injection, schedule: Q04DX002 (ip), vehicle: saline with Tween-80
[18] = dose: 200.0 mg/kg/injection, schedule: Q04DX002 (ip), vehicle: saline
[19] = dose: 400.0 mg/kg/injection, schedule: Q04DX002 (ip), vehicle: saline with Tween-80
[20] = dose: 400.0 mg/kg/injection, schedule: Q04DX002 (ip), vehicle: saline
[21] = dose: 100.0 mg/kg/injection, schedule: Q04DX003 (ip), vehicle: saline
[22] = dose: 200.0 mg/kg/injection, schedule: Q04DX003 (ip), vehicle: saline
[23] = dose: 50.0 mg/kg/injection, schedule: Q01DX001 (ip), vehicle: saline with Tween-80
[24] = dose: 100.0 mg/kg/injection, schedule: Q01DX001 (ip), vehicle: saline with Tween-80
[25] = dose: 200.0 mg/kg/injection, schedule: Q01DX001 (ip), vehicle: saline with Tween-80

Measured: T/C

Oc1ccccc1C1=NC(c2ccccc2)NC(c2ccccc2)C1 (centres undefined)
inactive: [1] 88 % of control | [2] 93 % of control

CCN(CC)c1cc(C(=O)O)cc(N(CC)CC)n1
inactive: dose: 6.25 mg/kg/injection, schedule: Q01DX005 (ip), vehicle: sodium bicarbonate 104 % of control | [3] 98 % of control and 100 % of control | dose: 12.5 mg/kg/injection, schedule: Q01DX005 (ip), vehicle: sodium bicarbonate 114 % of control | [4] 98 % of control and 106 % of control | dose: 25.0 mg/kg/injection, schedule: Q01DX005 (ip), vehicle: sodium bicarbonate 120 % of control | [5] 100 % of control and 120 % of control and 123 % of control | dose: 50.0 mg/kg/injection, schedule: Q01DX005 (ip), vehicle: sodium bicarbonate 121 % of control

COc1cc2nn(-c3ccccc3N)nc2cc1OC
inactive: [6] 106 % of control | [7] 100 % of control | [8] 102 % of control

O=c1c2cc(Cl)ccc2nc2n1OCC2
inactive: [9] 94 % of control | [10] 112 % of control | [11] 104 % of control

CC(=O)OC1CCC2C3C=CC4=C/C(=N/NC(N)=S)CCC4(C)C3CCC12C (centres undefined)
inactive: dose: 100.0 mg/kg/injection, schedule: Q01DX001 (ip), vehicle: saline 100 % of control | dose: 200.0 mg/kg/injection, schedule: Q01DX001 (ip), vehicle: saline 98 % of control | dose: 400.0 mg/kg/injection, schedule: Q01DX001 (ip), vehicle: saline 99 % of control

CN=C(N)N/N=C/c1c2ccccc2c(C)c2ccccc12
inactive: dose: 25.0 mg/kg/injection, schedule: Q04DX002 (ip), vehicle: saline 119 % of control | dose: 50.0 mg/kg/injection, schedule: Q04DX002 (ip), vehicle: saline 115 % of control

COC(=O)c1nnn(-c2ccc(Cl)cc2C)c1C(=O)c1ccc(OC)cc1
inactive: dose: 60.0 mg/kg/injection, schedule: Q01DX005 (ip), vehicle: Klucel + Tween-80 102 % of control | dose: 120.0 mg/kg/injection, schedule: Q01DX005 (ip), vehicle: Klucel + Tween-80 108 % of control | dose: 240.0 mg/kg/injection, schedule: Q01DX005 (ip), vehicle: Klucel + Tween-80 93 % of control

O=C1C(C(=Nc2ccc(Cl)cc2)c2ccccc2)=C(O)c2ccccc21
inactive: dose: 25.0 mg/kg/injection, schedule: Q04DX002 (ip), vehicle: saline with Tween-80 95 % of control | dose: 50.0 mg/kg/injection, schedule: Q04DX002 (ip), vehicle: saline with Tween-80 95 % of control | [12] 95 % of control

O=C1CN(c2cccc(Cl)c2)C(=O)CN1/N=C/c1ccc(O)c(O)c1
inactive: [13] 88 % of control | [14] 92 % of control | [15] 100 % of control

CC1=C(/C=C/Cl)CC(Cl)C(C)(Cl)C1 (centres undefined)
inactive: dose: 2.5 mg/kg/injection, schedule: Q01DX009 (ip), vehicle: Klucel (hydroxypropylcellulose) (HPC) 102 % of control | dose: 5.0 mg/kg/injection, schedule: Q01DX009 (ip), vehicle: Klucel (hydroxypropylcellulose) (HPC) 102 % of control | dose: 10.0 mg/kg/injection, schedule: Q01DX009 (ip), vehicle: Klucel (hydroxypropylcellulose) (HPC) 93 % of control | dose: 20.0 mg/kg/injection, schedule: Q01DX009 (ip), vehicle: Klucel (hydroxypropylcellulose) (HPC) 99 % of control

COc1cc2c(cc1OC)C(C)P(C)(=O)CC2O (centres undefined)
inactive: [12] 100 % of control | [16] 109 % of control | [17] 107 % of control | [18] 98 % of control | [19] 100 % of control | [20] 98 % of control

Cn1c2ccccc2c(=O)c2cc(NC(=O)CCCC(=O)Nc3ccc4c(c3)c(=O)c3ccccc3n4C)ccc21
inactive: [13] 98 % of control | [14] 99 % of control | [15] 101 % of control

O=C1CC2CC(=O)C(S(=O)c3ccccc3)C2C1 (centres undefined)
inactive: [6] 96 % of control | [7] 99 % of control

CCCCC(CCC)(CCN)CCCC
inactive: dose: 3.0 mg/kg/injection, schedule: Q01DX009 (ip), vehicle: saline 95 % of control | dose: 6.0 mg/kg/injection, schedule: Q01DX009 (ip), vehicle: saline 100 % of control | dose: 12.0 mg/kg/injection, schedule: Q01DX009 (ip), vehicle: saline 104 % of control

CCOc1ccc(-n2c(=O)c(N=Nc3ccccc3Cl)c(O)n(-c3ccc(Br)cc3)c2=S)cc1
inactive: [12] 90 % of control | [17] 94 % of control | [19] 87 % of control

Cc1cc(N(CCCl)CCCl)ccc1C=Nc1ccccc1-c1ccccc1
active: dose: 400.0 mg/kg/injection, schedule: Q01DX009 (ip), vehicle: Klucel (hydroxypropylcellulose) (HPC) 155 % of control | dose: 600.0 mg/kg/injection, schedule: Q01DX009 (ip), vehicle: Klucel (hydroxypropylcellulose) (HPC) 170 % of control

Cc1c([N+](=O)[O-])ccn1C
inactive: [1] 98 % of control | [2] 105 % of control | dose: 200.0 mg/kg/injection, schedule: Q01DX009 (ip), vehicle: saline with Tween-80 97 % of control

O=[N+]([O-])c1cccc(S(=O)(=O)N/N=C/c2cccc([N+](=O)[O-])c2O)c1
inactive: [6] 106 % of control | [7] 107 % of control | [8] 104 % of control

CCCCCCCCCCCC1=C(O)C(=O)C(I)=C(O)C1=O
inactive: [13] 108 % of control | [14] 100 % of control and 108 % of control | [15] 108 % of control

Clc1cc2nsnc2cc1Cl
inactive: dose: 50.0 mg/kg/injection, schedule: Q04DX003 (ip), vehicle: saline 100 % of control | [21] 94 % of control | [22] 104 % of control | dose: 400.0 mg/kg/injection, schedule: Q04DX003 (ip), vehicle: saline 101 % of control

Cc1cccc2c(=O)n(C(=O)c3ccccc3)c(N)nc12
inactive: dose: 25.0 mg/kg/injection, schedule: Q01DX001 (ip), vehicle: saline with Tween-80 88 % of control | [23] 90 % of control | [24] 89 % of control | [25] 93 % of control

COc1ccccc1C(c1cc2c(cc1O)OCO2)N1CCOCC1 (centres undefined)
inactive: [6] 117 % of control | [7] 115 % of control | [8] 122 % of control

ClCCN(CCCl)c1ccc(N=Nc2cccc(Cl)c2Cl)cc1
inactive: dose: 150.0 mg/kg/injection, schedule: Q04DX003 (ip), vehicle: Klucel (hydroxypropylcellulose) (HPC) 99 % of control | dose: 300.0 mg/kg/injection, schedule: Q04DX003 (ip), vehicle: Klucel (hydroxypropylcellulose) (HPC) 95 % of control

CC1(C)OCC(C2OC3OC(C)(C)OC3C2(O)/C(N)=N/O)O1 (centres undefined)
inactive: [16] 103 % of control | [18] 112 % of control | [20] 122 % of control

c1cc(CSC2=NCCN2)c2cccc(CSC3=NCCN3)c2c1
inactive: [3] 103 % of control | [4] 107 % of control | [5] 103 % of control and 112 % of control

O=C(O)c1ccc(OCCOc2ccccc2)cc1
inactive: [23] 100 % of control | [24] 100 % of control | [25] 90 % of control

O=C(Nc1ccccc1)SCCSC(=S)N1CCCC1
inactive: [5] 103 % of control | dose: 100.0 mg/kg/injection, schedule: Q01DX005 (ip), vehicle: Klucel (hydroxypropylcellulose) (HPC) 105 % of control | dose: 200.0 mg/kg/injection, schedule: Q01DX005 (ip), vehicle: Klucel (hydroxypropylcellulose) (HPC) 105 % of control

O=C(OCCO)c1ccccc1-c1c2cc3cc(Br)c(O)c(Br)c3oc-2c(Br)c(=O)c1Br
inactive: dose: 60.0 mg/kg/injection, schedule: Q01DX005 (ip), vehicle: saline 100 % of control | dose: 120.0 mg/kg/injection, schedule: Q01DX005 (ip), vehicle: saline 94 % of control | dose: 240.0 mg/kg/injection, schedule: Q01DX005 (ip), vehicle: saline 105 % of control

CSC(=S)/C=C(\O)c1ccccc1
inactive: [21] 95 % of control | [22] 104 % of control

O=C1Nc2ccccc2/C1=C/c1ccco1
inactive: [9] 99 % of control | [10] 113 % of control | [11] 89 % of control
